Converted amounts (≈) assume the structure as drawn. The source made the active and inactive calls. The rule behind the calls is not given here.
Key:
Haemophilus influenzae [1] = experiment: Antibacterial activity against acrB efflux-pump deficient mutant of Haemophilus influenzae; format: functional
[2] = Inhibition of Streptococcus pneumoniae GlmU
[3] = Inhibition of Escherichia coli GlmU
[4] = Inhibition of Haemophilus influenzae GlmU
physchem = conditions: buffer, pH 7.4
Description: Lipophilicity, log D of the compound at pH 7.4

Haemophilus influenzae [5] = experiment: Antibacterial activity against acrB efflux-pump deficient mutant of Haemophilus influenzae assessed as inhibition of cell-wall biosynthesis; format: functional, organism-based
Haemophilus influenzae [6] = experiment: Antibacterial activity against acrB efflux-pump deficient mutant of Haemophilus influenzae assessed as inhibition of radio-labeled biosynthetic precursor incorporation; format: functional, organism-based
Haemophilus influenzae [7] = experiment: Antibacterial activity against acrB efflux-pump deficient mutant of Haemophilus influenzae assessed as inhibition of lipid biosynthesis; format: functional, organism-based

Row | Structure (SMILES) | MIC (Haemophilus influenzae [1]) [µg/mL] | IC50 [2] [nM] | IC50 [3] [nM] | IC50 [4] [nM] | logD (physchem) | inhibition (Haemophilus influenzae [5]) | inhibition (Haemophilus influenzae [6]) | inhibition (Haemophilus influenzae [7])
1 | COc1cc(OC)c(S(=O)(=O)N(c2ccccc2)c2ccccc2)cc1NC(=O)CCC(=O)O | > 64 | 25500 | 40 | 910 | – | – | – | –
2 | COc1cc(OC)c(S(=O)(=O)N(c2ccc(C)cc2)c2ccc(C)cc2)cc1NC(=O)CCC(=O)O | 32 (≈ 62.4 µM) | 48000 | 40 | 320 | – | – | – | –
3 | COc1cc(O)c(S(=O)(=O)N2c3ccccc3Oc3ccccc32)cc1NC(=O)[C@@H]1C(C)[C@H]1C(=O)O (relative stereo) | 32 (≈ 62.7 µM) | 30300 | 60 | 30 | – | – | – | –
4 | COc1cc(OC)c(S(=O)(=O)N2c3ccccc3Oc3ccccc32)cc1NC(=O)/C=C/C(=O)O | 64 (≈ 129 µM) | 21500 | 10 | 20 | -0.71 | – | – | –
5 | COc1cc(OC)c(S(=O)(=O)N2c3ccccc3Oc3ccccc32)cc1NC(=O)Cc1ccncc1 | 64 (≈ 124 µM) | 32000 | 60 | 30 | – | – | – | –
6 | COc1cc(OC)c(S(=O)(=O)N(c2ccccc2)c2ccc3ccccc3c2)cc1NC(=O)CCC(=O)O | 32 (≈ 59.9 µM) | 8400 | 40 | 830 | – | – | – | –
7 | COc1cc(OC)c(S(=O)(=O)N(c2ccccc2)c2ccc(N)cc2)cc1NC(=O)CCC(=O)O | > 64 | 40200 | 20 | 400 | – | – | – | –
8 | COc1cc(OC)c(S(=O)(=O)N2c3ccccc3Sc3ccccc32)cc1NC(=O)CCC(=O)O | > 64 | 36900 | 90 | 370 | -0.31 | – | – | –
9 | COc1cc(OC)c(S(=O)(=O)N2c3ccccc3CCC2C)cc1NC(=O)Cc1ccnc(F)c1 (stereo unspecified) | > 128 | 9000 | 800 | 520 | 2.49 | – | – | –
10 | COc1cc(O)c(S(=O)(=O)N2c3ccccc3CCC2C)cc1NC(=O)[C@@H]1C(C)[C@H]1C(=O)O (relative stereo) | 128 (≈ 270 µM) | 7840 | < 480 | 380 | – | – | – | –
11 | COc1cc(OC)c(S(=O)(=O)N2Cc3ccccc3Oc3ccccc32)cc1NC(=O)CCC(=O)O | 32 (≈ 62.4 µM) | 55000 | 30 | 80 | – | – | – | –
12 | COc1cc(O)c(S(=O)(=O)N2c3ccccc3CCC2C)cc1NC(=O)CCC(=O)O (stereo unspecified) | 32 (≈ 71.3 µM) | 46600 | 50 | 280 | -0.27 | Active | Active | Active
13 | COc1cc(OC)c(S(=O)(=O)N2c3ccccc3Oc3ccccc32)cc1NC(=O)[C@@H]1C(C)[C@H]1C(=O)O (mixture of isomers) | 32 | 5300 | 30 | 10 | 0.06 | – | – | –
14 | COc1cc(OC)c(S(=O)(=O)N2c3ccccc3Oc3ccccc32)cc1NC(=O)CCC(=O)O | 32 (≈ 64.2 µM) | 14600 | 10 | 20 | – | Active | Active | Active
15 | COc1cc(OC)c(S(=O)(=O)N2c3ccccc3CCC2C)cc1NC(=O)CCc1nn[nH]n1 (stereo unspecified) | > 64 | 24700 | 430 | 600 | -0.34 | – | – | –
16 | COc1cc(OC)c(S(=O)(=O)N2c3ccccc3CCC2C)cc1NC(=O)[C@@H]1C(C)[C@H]1C(=O)O (mixture of isomers) | 128 | 5900 | 400 | 510 | -0.39 | – | – | –
17 | COc1cc(OC)c(S(=O)(=O)N2c3ccccc3Oc3ccccc32)cc1NC(=O)Cc1ccnc(F)c1 | > 128 | 9900 | 90 | 30 | 3.37 | – | – | –
18 | COc1cc(OC)c(S(=O)(=O)N2c3ccccc3CCC2C)cc1NC(=O)Cc1ccnc(C#N)c1 (stereo unspecified) | > 128 | 10000 | 680 | 670 | – | – | – | –

From ChEMBL document CHEMBL2203064, “Inhibitors of the acetyltransferase domain of N-acetylglucosamine-1-phosphate-uridylyltransferase/glucosamine-1-phosphate-acetyltransferase (GlmU). Part 2: Optimization of physical properties leading to antibacterial aryl sulfonamides” (Bioorg Med Chem Lett, 2012)
